The values that follow come from the supplement of paper PMC3974653.

Counter-ions that a name gives are not always drawn.

The test deals with MTT (mouse pheochromocytoma). As to the kind of experiment: IC50 of cell viability (ATP content). The following applies: (24 or 48 h). The method in brief:
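MTT mouse pheochromocytoma cells (5 µl of 200,000 cells/ml per well, white 1536-well plates, DMEM with 5% FBS and 1% horse serum) were cultured overnight at 37°C, 5% CO2. They then received 23 nl library compound in DMSO by pintool at 8 concentrations (final 0.5 nM to 46 µM) for 24 or 48 hrs. CellTiter-Glo ATP luminescence was read after 15 minutes. Signals were normalised to positive-control (100% inhibition) and DMSO (0%) wells, and IC50 came from a four-parameter logistic fit.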

With `CCCC(=O)[O-]` [SODIUM BUTYRATE], the “IC50 of cell viability” value was more than 46 µM.

Regarding `O=C(O)C(Cl)Cl` [Dichloroacetic acid], the “IC50 of cell viability” value is more than 46 µM.

In the case of `Cc1ccc(/N=C/N(C)/C=N/c2ccc(C)cc2C)c(C)c1` [AMITRAZ], the “IC50 of cell viability” value was more than 46 µM.

As for `O=C(NCN1CCOCC1)c1cnccn1` [Morinamida], the “IC50 of cell viability” value is more than 46 µM.

As to `C1CN\C(N1)=C/C2=CC=CC3=C2C=CC=C3` [Nephazoline], the “IC50 of cell viability” value was more than 46 µM.

Turning to `Clc1ccc2nsnc2c1NC1=NCCN1` [Tizanidina], the “IC50 of cell viability” value is more than 46 µM.

Turning to `CC[C@H]1NC(=O)c2cc([S+](N)(=O)[O-])c(Cl)cc2N1` [Quinethazone], the “IC50 of cell viability” value was more than 46 µM.

With `Cc1cccc(C)c1NC(=O)c1ccccc1C(=O)O` [Ftaxilida], the “IC50 of cell viability” value is more than 46 µM.

Consider `CCOC(=O)c1ncn2c1CN(C)C(=O)c1cc(F)ccc1-2` [FLUMAZENIL], for which the “IC50 of cell viability” value is more than 46 µM.

Consider `CNC[C@H](O)[C@H](O)[C@H](O)[C@H](O)CO.Cc1c(Nc2ncccc2C(=O)O)cccc1C(F)(F)F` [Flunixin meglumine], for which the “IC50 of cell viability” value is more than 46 µM.

On to `CO[C@@H]1[C@@H](OC2OC(C)C(OC3CC(C)(O)C(O)C(C)O3)C(N(C)C)C2O)[C@@H](CC=O)C[C@@H](C)[C@@H](OC2CCC(N(C)C)C(C)O2)/C=C/C=C/C[C@@H](C)OC(=O)C[C@H]1OC(C)=O` (some centres undefined) [Acetyl Spiramycin], for which the “IC50 of cell viability” value is more than 46 µM.

In the case of `NCC[C@H](O)C(=O)N[C@@H]1C[C@H](N)[C@@H](O[C@H]2O[C@H](CN)[C@@H](O)[C@H](O)[C@H]2O)[C@H](O)[C@H]1O[C@H]1O[C@H](CO)[C@@H](O)[C@H](N)[C@H]1O` [Amikacin sulfate], the “IC50 of cell viability” value was more than 46 µM.

Take `C/C(=C(/CCO)SSC[C@@H]1CCCO1)N(C=O)Cc1cnc(C)nc1N` [FURSULTIAMINE HYDROCHLORIDE]: the “IC50 of cell viability” value was more than 46 µM.

Consider `ClCc1ccccc1.O=C1CC2OCC=C3CN4CCC56c7ccccc7N1C5[C@H]2[C@H]3C[C@H]46` (some centres undefined) [STRYCHNINE SULFATE], for which the “IC50 of cell viability” value is more than 46 µM.

For the molecule `FC(F)(F)c1cccc(C2=CCN(CCc3ccc4ccccc4c3)CC2)c1` [XALIPRODEN HYDROCHLORIDE], the “IC50 of cell viability” value is more than 46 µM.

`COc1cc(CCN)cc(OC)c1OC` [Mescaline]: the “IC50 of cell viability” value is more than 46 µM.

In the case of `CCCCC(=O)O` [Valeric acid], the “IC50 of cell viability” value is more than 46 µM.

With `C[C@@]12CC[C@@H]3c4ccc(O[S+](=O)([O-])O)cc4CC[C@H]3[C@H]1CCC2=O` [Estropipate], the “IC50 of cell viability” value was more than 46 µM.

On to `CNC1=C[N+]([O-])=C(c2ccccc2)c2cc(Cl)ccc2N1` [CHLORDIAZEPOXIDE], for which the “IC50 of cell viability” value is more than 46 µM.

Take `CN1CCN(CC1)C2=C(F)C=C3C(=O)\C(=C/N4CCSC2=C34)C(O)=O` [RUFLOXACINUM]: the “IC50 of cell viability” value was more than 46 µM.

Turning to `NC(=O)C1CC2(NC(=O)NC2=O)c2cc(F)ccc2O1` (centres undefined) [FIDARESTAT], the “IC50 of cell viability” value is more than 46 µM.

Turning to `CO[C@@]1(NC(=O)CSC(F)F)C(=O)N2C(C(=O)O)=C(CSc3nnnn3CCO)CO[C@@H]21` [Flomoxef], the “IC50 of cell viability” value is more than 46 µM.

For `CN(C)/C=N/c1c(I)cc(I)c(CCC(=O)O)c1I` [IPODATE CALCIUM], the “IC50 of cell viability” value is more than 46 µM.

For `COc1cc(C)nc(-n2nc(C)cc2OC)n1` [Epirizole], the “IC50 of cell viability” value is more than 46 µM.

On to `CN[C@H]1[C@@H](O)[C@@H](NC)[C@@H]2O[C@]3(O)C(=O)C[C@@H](C)O[C@H]3O[C@H]2[C@H]1O` [Spectinomycin dihydrochloride], for which the “IC50 of cell viability” value was more than 46 µM.

Consider `O=C(O)CC(O)CC(O)/C=C/c1c(C2CC2)nc2ccccc2c1-c1ccc(F)cc1` (centres undefined) [Pitavastatin], for which the “IC50 of cell viability” value is more than 46 µM.

Regarding `CC(CC(c1ccccc1)c1ccccc1)NC(C)(C)C` (centres undefined) [Terodiline hydrochloride], the “IC50 of cell viability” value was more than 46 µM.

For `O=C(O)Cc1cccc2ccccc12` [1-Naphthalene acetic acid], the “IC50 of cell viability” value is more than 46 µM.

As to `CC(C)C1CCC(C(=O)NC(Cc2ccccc2)C(=O)O)CC1` (centres undefined) [NATEGLINIDE], the “IC50 of cell viability” value is more than 46 µM.

Regarding `COc1ccc(N[S+](=O)([O-])c2ccc(N)cc2)nn1` [Sulfamethoxypyridazine], the “IC50 of cell viability” value is more than 46 µM.

On to `N\C1=N\C2=C(N=C[N]2COC(CO)CO)C(=O)N1` [Ganciclovir], for which the “IC50 of cell viability” value is more than 46 µM.

Consider `CCCCCCCCCCCC(CC1OC(=O)C1CCCCCC)OC(=O)C(CC(C)C)NC=O` (centres undefined) [ORLISTAT], for which the “IC50 of cell viability” value is more than 46 µM.

Turning to `CC(C)(CO)C(O)C(=O)NCCCC(=O)[O-]` (centres undefined) [CALCIUM HOPANTENATE], the “IC50 of cell viability” value is more than 46 µM.

For `C=CCN1CCCC1CNC(=O)c1cc([S+](N)(=O)[O-])cc(OC)c1OC` (centres undefined) [Veraliprida], the “IC50 of cell viability” value was more than 46 µM.

As for `O=C[C@H](O)[C@@H](O)[C@H](O)[C@H](O)CO` [D-Glucose], the “IC50 of cell viability” value was more than 46 µM.

Take `Nc1c(CC(=O)[O-])cccc1C(=O)c1ccccc1` [Amfenac Sodium]: the “IC50 of cell viability” value is more than 46 µM.

Turning to `O.O.OC1=CC2=C(C(=C1)O)C(=O)\C(=C(/O2)C3=CC(=C(O)C=C3)O)O` [Quercetine dihydrate], the “IC50 of cell viability” value was more than 46 µM.

For the molecule `O[C@H]1\C=C/[C@H]2[C@H]3CC4=C5C(=C(O)C=C4)O[C@@H]1[C@@]25CCN3CC=C` [NALORPHINE HYDROCHLORIDE], the “IC50 of cell viability” value is more than 46 µM.

`COc1ccccc1OC[C@H](O)COC(N)=O` [Methocarbamol]: the “IC50 of cell viability” value is more than 46 µM.

`Cc1ccc(-c2ncc(Cl)cc2-c2ccc(S(C)(=O)=O)cc2)cn1` [ETORICOXIB]: the “IC50 of cell viability” value is more than 46 µM.

With `Cc1ncc(CO)c(C=O)c1O` [PYRIDOXAL HYDROCHLORIDE], the “IC50 of cell viability” value was more than 46 µM.

In the case of `c1csc(C2(N3CCCCC3)CCCCC2)c1` [TENOCYCLIDINUM], the “IC50 of cell viability” value is more than 46 µM.

`CCc1cccc2c3c([nH]c12)[C@](CC)(CC(=O)O)OCC3` [Etodolac]: the “IC50 of cell viability” value was more than 46 µM.

As to `CN1\C(=C(\O)C2=CC=CC=C2[S+]1([O-])=O)C(=O)NC3=NC=C(C)S3` [MELOXICAM], the “IC50 of cell viability” value is more than 46 µM.

Regarding `CN1CCN(CC1)C/2=N/C3=CC=CC=C3NC4=C2C=C(C)S4` [olanzapine], the “IC50 of cell viability” value was more than 46 µM.

In the case of `CC(=O)N(CC(O)CO)c1c(I)c(C(=O)NCC(O)CO)c(I)c(C(=O)NCC(O)CO)c1I` (centres undefined) [Iohexol], the “IC50 of cell viability” value is more than 46 µM.

On to `CCCCCCCCOC(=O)c1ccccc1C(=O)OCCCCCCCC` [Dioctyl phthalate], for which the “IC50 of cell viability” value is more than 46 µM.

On to `N=C(Nc1ccccc1)Nc1ccccc1` [1,3-Diphenylguanidine], for which the “IC50 of cell viability” value was more than 46 µM.

Take `CCN(CC)CCOC(=O)C1(c2ccccc2)CCCC1` [CARAMIPHEN EDISYLATE]: the “IC50 of cell viability” value is more than 46 µM.

`BrC1=C2N=CC=NC2=CC=C1N\C3=N\CCN3` [UK 14,304]: the “IC50 of cell viability” value was more than 46 µM.

`COc1cc2c(c(OC)c1OC)-c1c(cc3c(c1OC)OCO3)CC(C)C(C)(O)C2` (centres undefined) [Gomisin A]: the “IC50 of cell viability” value is more than 46 µM.

Turning to `OC[C@H]1O[C@H](C[C@@H]1O)N2\C=C(Br)/C(=O)NC2=O` [Broxuridina], the “IC50 of cell viability” value is more than 46 µM.

Regarding `CCCCC(=O)OCC(=O)[C@H]1[C@H](C)C[C@@H]2[C@@H]3C[C@@H](F)C4=CC(=O)C=C[C@]4(C)[C@@]3(F)[C@@H](O)C[C@@]21C` [DIFLUCORTOLONE VALERATE], the “IC50 of cell viability” value was more than 46 µM.

Consider `C[C@H](CN1CCCC1)C(=O)c1ccc(C(F)(F)F)cc1` [LANPERISONE HYDROCHLORIDE], for which the “IC50 of cell viability” value was more than 46 µM.

Consider `CC(C)(CO)[C@@H](O)C(=O)NCCC(=O)[O-]` [D-Pantothenic acid hemicalcium salt], for which the “IC50 of cell viability” value is more than 46 µM.

Take `COC(=O)Nc1nc2ccc([S+]([O-])c3ccccc3)cc2[nH]1` (centres undefined) [Oxfendazole]: the “IC50 of cell viability” value is more than 46 µM.

For `COc1ccc(C(=O)N2CCN(CC(=O)N3CCOCC3)CC2)cc1` [Molracetam], the “IC50 of cell viability” value was more than 46 µM.

On to `CCCCCCC(O)C/C=C/CCCCCCCC(=O)O` (centres undefined) [POTASSIUM RICINOLEATE], for which the “IC50 of cell viability” value is more than 46 µM.

On to `CC(CNC(=O)c1cccnc1)NC(=O)c1cccnc1` (centres undefined) [Nicaraven], for which the “IC50 of cell viability” value is more than 46 µM.

With `CC[C@]1(c2cccc(O)c2)CCCCN(C)C1` [Meptazinol hydrochloride], the “IC50 of cell viability” value was more than 46 µM.

As to `CC(C)(Oc1ccc(Cl)cc1)C(=O)O` [Clofibric_acid], the “IC50 of cell viability” value is more than 46 µM.

For `O=C1Nc2ccc(Cl)cc2C(c2ccccc2)=NC1O` (centres undefined) [Oxazepam], the “IC50 of cell viability” value is more than 46 µM.

Consider `CCC(C)(Oc1ccc(C2(c3ccc(OC(C)(CC)C(=O)O)cc3)CCCCC2)cc1)C(=O)O` (centres undefined) [CLINOFIBRATE], for which the “IC50 of cell viability” value was more than 46 µM.

Turning to `O=S(=O)([O-])O.[Na+]` [Sodium hydrogen sulfate], the “IC50 of cell viability” value is more than 46 µM.

Take `C[N+]1(C)C2CCC1CC(OC(=O)c1c[nH]c3ccccc13)C2.[I-]` (centres undefined) [3-Tropanylindole-3-carboxylate methiodide]: the “IC50 of cell viability” value is more than 46 µM.

On to `C[C@@]12CCC(=O)/C=C1/C=C\C3C2CC[C@]4(C)C3CC[C@@]45CCC(=O)O5` (some centres undefined) [CANRENONE], for which the “IC50 of cell viability” value was more than 46 µM.

As for `CC(C)(O)C1C2OC(=O)C1C1(O)CC3OC34C(=O)OC2C14C` (centres undefined) [PICROTOXIN], the “IC50 of cell viability” value was more than 46 µM.

On to `CCN1CCc2nc(N)oc2CC1.Cl.Cl` [B-HT 933 dihydrochloride], for which the “IC50 of cell viability” value is more than 46 µM.

For `O=C(COc1ccc(Cl)cc1)OCCNC12C[C@H]3C[C@@H](C1)C[C@@H](C2)C3` [Adafenoxate], the “IC50 of cell viability” value is more than 46 µM.
